Test results as given in patent US10239832B2, “N-(1-hydroxy-3-(pyrrolidinyl)propan-2-yl)pyrrolidine-3-carboxamide derivatives as glucosylceramide synthase inhibitors” (BIOMARIN PHARMACEUTICAL INC., priority 2013, dated 2019).

Molecular target: T1, GCS (Canis lupus familiaris, UniProt A0A8I3MXG6)
T1 construct: endogenous in cells; host or cells: MDCK (Madin-Darby canine kidney) cells, whole-cell lysate
T1 sequence (A0A8I3MXG6 1-394): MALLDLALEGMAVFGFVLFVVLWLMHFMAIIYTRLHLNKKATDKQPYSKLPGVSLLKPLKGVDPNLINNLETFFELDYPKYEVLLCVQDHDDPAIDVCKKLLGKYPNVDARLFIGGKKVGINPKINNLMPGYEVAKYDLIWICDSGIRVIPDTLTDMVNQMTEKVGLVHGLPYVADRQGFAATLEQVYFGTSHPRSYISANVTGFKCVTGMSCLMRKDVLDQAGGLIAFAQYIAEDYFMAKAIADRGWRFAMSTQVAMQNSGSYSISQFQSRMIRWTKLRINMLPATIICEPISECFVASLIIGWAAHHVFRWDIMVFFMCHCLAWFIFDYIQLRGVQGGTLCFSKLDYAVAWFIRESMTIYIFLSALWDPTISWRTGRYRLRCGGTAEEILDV
Assay: GCS enzymatic assay (MDCK cell lysate, NBD-ceramide to glucosylceramide, LC/MS)
Assay type: biochemical, canine
Settings: Table 2; class symbols A, B, C; the table does not say which of the assays; read-out: Data Range (IC50 values)
Procedure, shortened: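 IC50 or percent inhibition came from LC/MS/MS (ESI+, MRM) of NBD-ceramide and glucosylceramide, with tolbutamide as internal standard. The reaction used MDCK (canine) cell lysate as the enzyme source and was ended with acetonitrile. Mock wells received 0.1% DMSO.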

Row | SMILES | IC50 [µM]
1 | O=C(N[C@H](CN1CCCC1)[C@H](O)c1ccc(OC2CC2)c(Cl)c1)[C@@H]1CCN(c2cccc(Oc3ccc(Cl)cc3)n2)C1 [Compound 112, (R)-N-((1R,2R)-1-(3-chloro-4-cyclopropoxyphenyl)-1-hydroxy-3-(pyrrolidin-1-yl)propan-2-yl)-1-(6-(4-chlorophenoxy)pyridin-2-yl)pyrrolidine-3-carboxamide] | 0.001 to 0.03
2 | O=C(N[C@H](CN1CCC1)[C@H](O)c1cc(F)c2c(c1)OCCO2)[C@@H]1CCN(c2ccc3ccccc3c2)C1 [Compound 85, (R)-N-((1R,2R)-3-(azetidin-1-yl)-1-(8-fluoro-2,3-dihydrobenzo[b][1,4]dioxin-6-yl)-1-hydroxypropan-2-yl)-1-(naphthalen-2-yl)pyrrolidine-3-carboxamide] | 0.001 to 0.03
3 | O=C(N[C@H](CN1CCC1)[C@H](O)c1cc(F)c2c(c1)OCCO2)[C@@H]1CCN(c2ccc3cc(Cl)ccc3c2)C1 [Compound 89, (R)-N-((1R,2R)-3-(azetidin-1-yl)-1-(8-fluoro-2,3-dihydrobenzo[b][1,4]dioxin-6-yl)-1-hydroxypropan-2-yl)-1-(6-chloronaphthalen-2-yl)pyrrolidine-3-carboxamide] | 0.001 to 0.03
4 | O=C(N[C@H](CN1CCC1)[C@H](O)c1ccc2c(c1)OCCO2)C1CCN(c2ccc3cc(F)ccc3c2)C1 (stereo partly drawn) [Compound 79A, N-((1R,2R)-3-(azetidin-1-yl)-1-(2,3-dihydrobenzo[b][1,4]dioxin-6-yl)-1-hydroxypropan-2-yl)-1-(6-fluoronaphthalen-2-yl)pyrrolidine-3-carboxamide] | 0.001 to 0.03
5 | O=C(N[C@H](CN1CCCC1)[C@H](O)c1ccc(OC2CC2)c(Cl)c1)C1CCN(c2ccc(Cl)cc2)C1 (stereo partly drawn) [Compound 3A, N-((1R,2R)-1-(3-chloro-4-cyclopropoxyphenyl)-1-hydroxy-3-(pyrrolidin-1-yl)propan-2-yl)-1-(4-chlorophenyl)pyrrolidine-3-carboxamide] | 0.03 to 0.1
6 | O=C(N[C@H](CN1CCCC1)[C@H](O)c1cc(F)c2c(c1)OCCO2)[C@@H]1CCN(c2ccc3ccccc3n2)C1 [Compound 68, (R)-N-((1R,2R)-1-(8-fluoro-2,3-dihydrobenzo[b][1,4]dioxin-6-yl)-1-hydroxy-3-(pyrrolidin-1-yl)propan-2-yl)-1-(quinolin-2-yl)pyrrolidine-3-carboxamide] | 0.001 to 0.03
7 | O=C(N[C@H](CN1CCC1)[C@H](O)c1cc(F)c2c(c1)OCCO2)C1CCN(c2ccc3cc(F)ccc3c2)C1 (stereo partly drawn) [Compound 47A, N-((1R,2R)-3-(azetidin-1-yl)-1-(8-fluoro-2,3-dihydrobenzo[b][1,4]dioxin-6-yl)-1-hydroxypropan-2-yl)-1-(6-fluoronaphthalen-2-yl)pyrrolidine-3-carboxamide] | 0.001 to 0.03
8 | O=C(N[C@H](CN1CCCC1)[C@H](O)c1ccc2c(c1)OCCO2)[C@@H]1CCN(c2ccc(F)cc2)C1 [Compound 24, (R)-N-((1R,2R)-1-(2,3-dihydrobenzo[b][1,4]dioxin-6-yl)-1-hydroxy-3-(pyrrolidin-1-yl)propan-2-yl)-1-(4-fluorophenyl)pyrrolidine-3-carboxamide] | 0.001 to 0.03
9 | O=C(N[C@H](CN1CCCC1)[C@H](O)c1cc2c(c(C(F)(F)F)c1)OCCO2)[C@@H]1CCN(c2ccc(Cl)cc2)C1 [Compound 137, (R)-1-(4-chlorophenyl)-N-((1R,2R)-1-hydroxy-3-(pyrrolidin-1-yl)-1-(8-(trifluoromethyl)-2,3-dihydrobenzo[b][1,4]dioxin-6-yl)propan-2-yl)pyrrolidine-3-carboxamide] | 0.03 to 0.1
10 | CN1CCC(Oc2ccc([C@@H](O)[C@@H](CN3CCCC3)NC(=O)[C@@H]3CCN(c4ccc(Cl)cc4)C3)cc2Cl)CC1 [Compound 49, (R)-N-((1R,2R)-1-(3-chloro-4-((1-methylpiperidin-4-yl)oxy)phenyl)-1-hydroxy-3-(pyrrolidin-1-yl)propan-2-yl)-1-(4-chlorophenyl)pyrrolidine-3-carboxamide] | 0.03 to 0.1

Same assay, conditions: Table 2; class symbols D, E, F, NA (not active); the table does not say which of the assays

Row | SMILES | Data Range (% inhibition)
11 | O=C(N[C@H](CN1CCCC1)[C@H](O)c1cc(F)c2c(c1)OCCO2)[C@H]1CCN(c2ccc3c(c2)CCCC3)C1 [Compound 93A, (S)-N-((1R,2R)-1-(8-fluoro-2,3-dihydrobenzo[b][1,4]dioxin-6-yl)-1-hydroxy-3-(pyrrolidin-1-yl)propan-2-yl)-1-(5,6,7,8-tetrahydronaphthalen-2-yl)pyrrolidine-3-carboxamide] | E (50-74% (or less than 75%))
12 | O=C(N[C@H](CN1CCC1)[C@H](O)c1ccc2c(c1)OCCO2)[C@H]1CCN(c2ccc3cc(F)ccc3c2)C1 [Compound 79B, (S)-N-((1R,2R)-3-(azetidin-1-yl)-1-(2,3-dihydrobenzo[b][1,4]dioxin-6-yl)-1-hydroxypropan-2-yl)-1-(6-fluoronaphthalen-2-yl)pyrrolidine-3-carboxamide] | E (50-74% (or less than 75%))
13 | O=C(N[C@H](CN1CCCC1)[C@H](O)c1ccc2c(c1)OCCO2)C1CCN(C2Cc3ccccc3C2)C1 (stereo partly drawn) [Compound 55A, 1-(2,3-dihydro-1H-inden-2-yl)-N-((1R,2R)-1-(2,3-dihydrobenzo[b][1,4]dioxin-6-yl)-1-hydroxy-3-(pyrrolidin-1-yl)propan-2-yl)pyrrolidine-3-carboxamide] | F (1-49% (or less than 50%))
14 | O=C(N[C@H](CN1CCCC1)[C@H](O)c1ccc2c(c1)OCCO2)[C@H]1CCN(CCc2ccc(Cl)cc2)C1 [Compound 21F, (S)-1-(4-chlorophenethyl)-N-((1R,2R)-1-(2,3-dihydrobenzo[b][1,4]dioxin-6-yl)-1-hydroxy-3-(pyrrolidin-1-yl)propan-2-yl)pyrrolidine-3-carboxamide] | F (1-49% (or less than 50%))
15 | O=C(N[C@H](CN1CCCC1)[C@H](O)c1ccc(OC2COC2)nc1)[C@@H]1CCN(c2ccc(Cl)cc2)C1 [Compound 62, (R)-1-(4-chlorophenyl)-N-((1R,2R)-1-hydroxy-1-(6-(oxetan-3-yloxy)pyridin-3-yl)-3-(pyrrolidin-1-yl)propan-2-yl)pyrrolidine-3-carboxamide] | NA (not active—a negative value was generated for % inhibition)
16 | O=C(N[C@H](CN1CCCC1)[C@H](O)c1ccc(OC2CC2)c(Cl)c1)[C@H]1CCN(c2ccc3ccccc3c2)C1 [Compound 67C, (S)-N-((1R,2R)-1-(3-chloro-4-cyclopropoxyphenyl)-1-hydroxy-3-(pyrrolidin-1-yl)propan-2-yl)-1-(naphthalen-2-yl)pyrrolidine-3-carboxamide] | E (50-74% (or less than 75%))
17 | O=C(N[C@H](CN1CCCC1)[C@H](O)c1ccc2c(c1)OCCO2)C1CCN(c2ccc3ccccc3n2)C1 (stereo partly drawn) [Compound 72A, N-((1R,2R)-1-(2,3-dihydrobenzo[b][1,4]dioxin-6-yl)-1-hydroxy-3-(pyrrolidin-1-yl)propan-2-yl)-1-(quinolin-2-yl)pyrrolidine-3-carboxamide] | D (75-100%)
18 | O=C(N[C@H](CN1CCCCC1)[C@H](O)c1cc(F)c2c(c1)OCCO2)[C@H]1CCN(c2ccc(Cl)cc2)C1 [Compound 44C, (S)-1-(4-chlorophenyl)-N-((1R,2R)-1-(8-fluoro-2,3-dihydrobenzo[b][1,4]dioxin-6-yl)-1-hydroxy-3-(piperidin-1-yl)propan-2-yl)pyrrolidine-3-carboxamide] | NA (not active—a negative value was generated for % inhibition)
19 | O=C(N[C@H](CN1CCCC1)[C@H](O)c1ccc2c(c1)OCCO2)[C@H]1CCN(C2Cc3ccccc3C2)C1 [Compound 55B, (S)-1-(2,3-dihydro-1H-inden-2-yl)-N-((1R,2R)-1-(2,3-dihydrobenzo[b][1,4]dioxin-6-yl)-1-hydroxy-3-(pyrrolidin-1-yl)propan-2-yl)pyrrolidine-3-carboxamide] | F (1-49% (or less than 50%))
20 | CN1CCc2ccc(N3CC[C@@H](C(=O)N[C@H](CN4CCCC4)[C@H](O)c4ccc5c(c4)OCCO5)C3)cc2C1 [Compound 63, (R)-N-((1R,2R)-1-(2,3-dihydrobenzo[b][1,4]dioxin-6-yl)-1-hydroxy-3-(pyrrolidin-1-yl)propan-2-yl)-1-(2-methyl-1,2,3,4-tetrahydroisoquinolin-7-yl)pyrrolidine-3-carboxamide] | F (1-49% (or less than 50%))
21 | O=C(N[C@H](CN1CCCC1)[C@H](O)c1ccc2c(c1)OCCO2)[C@H]1CCN(c2ccc(OC3CC3)c(Cl)c2)C1 [Compound 20E, (S)-1-(3-chloro-4-cyclopropoxyphenyl)-N-((1R,2R)-1-(2,3-dihydrobenzo[b][1,4]dioxin-6-yl)-1-hydroxy-3-(pyrrolidin-1-yl)propan-2-yl)pyrrolidine-3-carboxamide] | F (1-49% (or less than 50%))
22 | Cn1ncc2ccc(N3CC[C@@H](C(=O)N[C@H](CN4CCCC4)[C@H](O)c4ccc5c(c4)OCCO5)C3)cc21 [Compound 61, (R)-N-((1R,2R)-1-(2,3-dihydrobenzo[b][1,4]dioxin-6-yl)-1-hydroxy-3-(pyrrolidin-1-yl)propan-2-yl)-1-(1-methyl-1H-indazol-6-yl)pyrrolidine-3-carboxamide] | NA (not active—a negative value was generated for % inhibition)
23 | O=C(N[C@H](CN1CCCC1)[C@H](O)c1ccc2c(c1)OCCO2)[C@@H]1CCN(c2ccc3nccnc3c2)C1 [Compound 83, (R)-N-((1R,2R)-1-(2,3-dihydrobenzo[b][1,4]dioxin-6-yl)-1-hydroxy-3-(pyrrolidin-1-yl)propan-2-yl)-1-(quinoxalin-6-yl)pyrrolidine-3-carboxamide] | F (1-49% (or less than 50%))
